Data taken from US12655160B2, “KRAS G12D inhibitors” (Mirati Therapeutics, Inc., priority 2020, dated 2026).
Structures can show the parent of a compound that is named as a salt.

How the values were obtained:
[1] = tested on: KRas G12D-mediated Phosphorylation of ERK; assay: Inhibition of KRas G12D-mediated Phosphorylation of ERK in AGS cells; type: cell-based; details: Homo sapiens; AGS cells expressing G12D, 3 hours, phospho-ERK signal normalized to GAPDH; read-out: IC50
Protocol: AGS cells (ATCC CRL-1739) expressing G12D were grown in DMEM medium supplemented with 10% fetal bovine serum, 10 mM HEPES, and Penicillin/Streptomycin. Cells were plated in tissue culture treated 96 well plates at a density of 40,000 cells/well and allowed to attach for 12-14 hours. Diluted compounds were then added in a final concentration of 0.5% DMSO. After 3 hours, the medium was removed, 150 μl of 4.0% formaldehyde was added and the plates incubated at room temperature for 20 minutes. The plates were washed with PBS, and permeabilized with 150 μL of ice cold 100% methanol for 10 minutes. Non-specific antibody binding to the plates was blocked using 100 μL Licor blocking buffer (Li-Cor Biotechnology, Lincoln NE) for 1 hour at room temperature.
The amount of phospho-ERK was determined using an antibody specific for the phosphorylated form of ERK and compared to the amount of GAPDH. Primary antibodies used for the detection were added as follows: Phospho-ERK(Cell Signaling cs-9101) diluted 1:500 and GAPDH (Millipore MAB374) diluted 1:5000 in Licor block+0.05% Tween 20. The plates were incubated for 2 hours at room temperature. The plates were washed with PBS+0.05% Tween 20.
Secondary antibodies used to visualize primary antibodies were added as follows: Anti-rabbit-680 diluted 1:1000 and Anti-mouse-800 diluted 1:1000 both in Licor block+0.05% Tween20, and were incubated for 1 hour at room temperature. The plates were washed with PBS+0.05% Tween 20. A 100 μl aliquot of PBS was added to each well and the plates were read on a Li-Cor Odyssey CLX plate reader.
The phospho-ERK(Thr202/Tyr204 signal was normalized to the GAPDH signal for each well and percent of DMSO control values were calculated. IC50 values were generated using a 4-parameter fit of the dose response curve

KRas G12D = KRas G12D (Homo sapiens, UniProt P01116, G12D); assay: KRas G12D Binding Assay (TR-FRET displacement of labeled tracer); design: corresponding to amino acids 1:169, produced at Array BioPharma Inc; biotin (biotinylated); details: TR-FRET displacement of Cy5 labelled tracer, Biotinylated GDP-loaded KRAS G12D (amino acids 1:169), 60 minute incubation at 22° C.
Sequence of KRas G12D (P01116 1-169 isoform P01116-2 G12D): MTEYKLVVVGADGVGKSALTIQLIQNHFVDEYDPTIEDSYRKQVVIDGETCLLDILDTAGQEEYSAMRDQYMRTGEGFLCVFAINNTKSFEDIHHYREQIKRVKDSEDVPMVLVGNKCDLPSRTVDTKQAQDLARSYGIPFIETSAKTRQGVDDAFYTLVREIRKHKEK
Protocol: This Example illustrates that exemplary compounds of the present invention bind to KRas G12D and are capable of displacing a labeled tracer ligand occupying the KRas G12D binding site. The ability of a compound to bind to KRAS G12D was measured using a TR-FRET displacement assay. Biotinylated GDP-loaded recombinant human KRAS G12D (corresponding to amino acids 1:169, produced at Array BioPharma Inc.) was incubated with a custom-made Cy5 labelled tracer, europium labelled streptavidin and compound (2% DMSO final) in buffer (50 mM HEPES [pH 7.5], 5 mM MgCl2, 0.005% Tween-20 & 1 mM DTT). After a 60 minute incubation at 22° C., the reaction was measured using a PerkinElmer EnVision multimode plate reader via TR-FRET dual wavelength detection, and the percent of control (POC) calculated using a ratiometric emission factor. […] The POC values were fit to a 4-parameter logistic curve and the IC50 value was determined as the concentration where the curve crosses 50 POC.

| SMILES | IC50 (KRas G12D) [nM] | IC50 [1] [nM] |
| --- | --- | --- |
| Oc1cc(-c2ncc3c(NC4CNC4)nc(OCC45CCCN4CCC5)nc3c2F)c2ccccc2c1 [Example 18, 4-(4-(azetidin-3-ylamino)-8-fluoro-2-((tetrahydro-1H-pyrrolizin-7a(5H)-yl)methoxy)pyrido[4,3-d]pyrimidin-7-yl)naphthalen-2-ol] | 46.5 | > 16700 |
| CCc1cccc2cc(O)cc(-c3ncc4c(NCC5(N(C)C)CCC5)nc(OC[C@]56CCCN5[C@@H](COC(=O)N(C)C)CC6)nc4c3F)c12 [Example 43, ((3R,7aR)-7a-(((4-(((1-(dimethylamino)cyclobutyl)methyl)amino)-7-(8-ethyl-3-hydroxynaphthalen-1-yl)-8-fluoropyrido[4,3-d]pyrimidin-2-yl)oxy)methyl)hexahydro-1H-pyrrolizin-3-yl)methyl dimethylcarbamate] | 1.1 | 53.5 |
| C#Cc1c(F)ccc2cc(O)cc(-c3ncc4c(NCC5(N(C)C)CCC5)nc(OC[C@]56CCCN5[C@@H](COC(=O)N(C)C)CC6)nc4c3F)c12 [Example 45, ((3R,7aR)-7a-(((4-(((1-(dimethylamino)cyclobutyl)methyl)amino)-7-(8-ethynyl-7-fluoro-3-hydroxynaphthalen-1-yl)-8-fluoropyrido[4,3-d]pyrimidin-2-yl)oxy)methyl)hexahydro-1H-pyrrolizin-3-yl)methyl dimethylcarbamate] | 0.4 | 38.3 |
| CN(C)C(=O)OC[C@H]1CC[C@@]2(COc3nc(NCC4(N(C)C)CCC4)c4cnc(-c5cccc6cccc(Cl)c56)c(F)c4n3)CCCN12 [Example 51, ((3R,7aR)-7a-(((7-(8-chloronaphthalen-1-yl)-4-(((1-(dimethylamino)cyclobutyl)methyl)amino)-8-fluoropyrido[4,3-d]pyrimidin-2-yl)oxy)methyl)hexahydro-1H-pyrrolizin-3-yl)methyl dimethylcarbamate] | 102 | > 16700 |
| CN(C)C1(CNc2nc(OC[C@]34CCCN3[C@@H](COC(=O)N3CCCCC3)CC4)nc3c(F)c(-c4cccc5cccc(Cl)c45)ncc23)CCC1 [Example 50, ((3R,7aR)-7a-(((7-(8-chloronaphthalen-1-yl)-4-(((1-(dimethylamino)cyclobutyl)methyl)amino)-8-fluoropyrido[4,3-d]pyrimidin-2-yl)oxy)methyl)hexahydro-1H-pyrrolizin-3-yl)methyl piperidine-1-carboxylate] | 89.6 | 10700 |
| CCc1c(F)ccc2cc(O)cc(-c3ncc4c(NCC5(N(C)C)CCC5)nc(OC[C@]56CCCN5[C@@H](COC(=O)N(C)C)CC6)nc4c3F)c12 [Example 46, ((3R,7aR)-7a-(((4-(((1-(dimethylamino)cyclobutyl)methyl)amino)-7-(8-ethyl-7-fluoro-3-hydroxynaphthalen-1-yl)-8-fluoropyrido[4,3-d]pyrimidin-2-yl)oxy)methyl)hexahydro-1H-pyrrolizin-3-yl)methyl dimethylcarbamate] | 0.7 | 38.7 |
| CCc1cccc2cc(O)cc(-c3ncc4c(NCC5(N(C)C)CCC5)nc(OC[C@@]56CCCN5[C@H](COC(=O)NC)CC6)nc4c3F)c12 (racemic) [Example 44] | 0.7 | 220 |
| CN[C@H]1C[C@@H](Nc2nc(OCC34CCCN3CCC4)nc3c(F)c(-c4cc(O)cc5ccccc45)ncc23)C1 [Example 17, 4-(8-fluoro-4-(((1s,3s)-3-(methylamino)cyclobutyl)amino)-2-((tetrahydro-1H-pyrrolizin-7a(5H)-yl)methoxy)pyrido[4,3-d]pyrimidin-7-yl)naphthalen-2-ol bis(2,2,2-trifluoroacetate)] | 80.9 | > 16700 |
| C#Cc1c(F)ccc2cccc(-c3ncc4c(NCC5(N(C)C)CCC5)nc(OCC56CCCN5CCC6)nc4c3F)c12 [Example 56, N-((1-(dimethylamino)cyclobutyl)methyl)-7-(8-ethynyl-7-fluoronaphthalen-1-yl)-8-fluoro-2-((hexahydro-1H-pyrrolizin-7a-yl)methoxy)pyrido[4,3-d]pyrimidin-4-amine] | 2.6 | 350 |
| CCc1cccc2cc(O)cc(-c3ncc4c(NCC5(N(C)C)CCCC5)nc(OC[C@@]56CCCN5C[C@H](F)C6)nc4c3F)c12 [Example 34, 4-(4-(((1-(dimethylamino)cyclopentyl)methyl)amino)-8-fluoro-2-(((2R,7aS)-2-fluorotetrahydro-1H-pyrrolizin-7a(5H)-yl)methoxy)pyrido[4,3-d]pyrimidin-7-yl)-5-ethylnaphthalen-2-ol dihydrochloride] | 1.1 | – |

More lines, main results first:

| IC50 (KRas G12D) [nM] | SMILES | IC50 [1] [nM] |
| --- | --- | --- |
| 79.3 | CN(C)C1(CNc2nc(OCC34CCCN3CCC4)nc3c(F)c(-c4cccc5cccc(Cl)c45)ncc23)CCC1 [Example 54, 7-(8-chloronaphthalen-1-yl)-N-((1-(dimethylamino)cyclobutyl)methyl)-8-fluoro-2-((tetrahydro-1H-pyrrolizin-7a(5H)-yl)methoxy)pyrido[4,3-d]pyrimidin-4-amine] | > 16700 |
| 59.2 | CCc1cccc2cccc(-c3ncc4c(NCC5(N(C)C)CCC5)nc(OC[C@@]56CCCN5C[C@H](F)C6)nc4c3F)c12 [Example 21, N-((1-(dimethylamino)cyclobutyl)methyl)-7-(8-ethylnaphthalen-1-yl)-8-fluoro-2-(((2R,7aS)-2-fluorotetrahydro-1H-pyrrolizin-7a(5H)-yl)methoxy)pyrido[4,3-d]pyrimidin-4-amine] | > 16700 |
| 22 | C#Cc1cccc2cccc(-c3ncc4c(NCC5(N(C)C)CCC5)nc(OC[C@@]56CCCN5C[C@H](F)C6)nc4c3F)c12 [Example 20, N-((1-(dimethylamino)cyclobutyl)methyl)-7-(8-ethynylnaphthalen-1-yl)-8-fluoro-2-(((2R,7aS)-2-fluorotetrahydro-1H-pyrrolizin-7a(5H)-yl)methoxy)pyrido[4,3-d]pyrimidin-4-amine bis(2,2,2-trifluoroacetate)] | 2510 |
| 62.8 | NC1(CNc2nc(OC[C@@]34CCCN3C[C@H](F)C4)nc3c(F)c(-c4cc(O)cc5ccccc45)ncc23)CCC1 [Example 29, 4-(4-(((1-aminocyclobutyl)methyl)amino)-8-fluoro-2-(((2R,7aS)-2-fluorotetrahydro-1H-pyrrolizin-7a(5H)-yl)methoxy)pyrido[4,3-d]pyrimidin-7-yl)naphthalen-2-ol bis(2,2,2-trifluoroacetate)] | 1560 |
| 684 | CN(C)C1(CNc2nc(OC[C@@]34CCCN3C[C@H](F)C4)nc3c(F)c(-c4cc(O)cc5ccccc45)ncc23)CCOCC1 [Example 41, 4-(4-(((4-(dimethylamino)tetrahydro-2H-pyran-4-yl)methyl)amino)-8-fluoro-2-(((2R,7aS)-2-fluorotetrahydro-1H-pyrrolizin-7a(5H)-yl)methoxy)pyrido[4,3-d]pyrimidin-7-yl)naphthalen-2-ol bis(2,2,2-trifluoroacetate)] | – |
| 3150 | CC(C)(O)CNc1nc(OC[C@@]23CCCN2C[C@H](F)C3)nc2c(F)c(-c3cccc4cccc(Cl)c34)ncc12 [Example 15, 1-((7-(8-chloronaphthalen-1-yl)-8-fluoro-2-(((2R,7aS)-2-fluorotetrahydro-1H-pyrrolizin-7a(5H)-yl)methoxy)pyrido[4,3-d]pyrimidin-4-yl)amino)-2-methylpropan-2-ol] | – |
